Measured values reported in patent US9738731B2, “Lactic acid bacterium growth enhancer, regulatory T-cell number increasing agent, method of enhancing growth of lactic acid bacterium, method of increasing number of regulatory T-cells, method of evaluating regulatory T-cell number increasing effect, and method of evaluating lactic acid growth …” (TOKYO UNIVERSITY OF SCIENCE FOUNDATION, priority 2013, dated 2017).

Tested on: total cLP cells from WT mice
Assay: Co-culture of total cLP cells with Lactobacillus strains, gene expression
Type: cell-based, mouse
Details: 1×10^5 cLP cells with 1×10^6 CFU, 12 h
Method: FIG. 7C: 1×10^5 total cLP cells from WT mice were co-cultured with 1×10^6 CFU (/well) L. murinus, L. animalis, L. salivarius, L. johnsonii or L. reuteri for 12 h. Cytokine gene expression was determined by real-time RT-PCR. Data in (FIGS. 7A-C) are representative of two independent experiments.
Total RNA was extracted with Mammalian Total RNA Miniprep kit (Sigma-Aldrich, St. Louis, U.S.) according to the manufacturer's instructions. RNA was denatured in the presence of an oligo dT primer and then reverse transcribed with the High Capacity cDNA Reverse Transcription Kit (Applied Biosystems, San Francisco, U.S.). Quantitative real-time RT-PCRs were performed with a SYBR Green qPCR kit (Carlsbad, U.S.) and an iCycler system (Bio-Rad, Hercules, U.S.) with the sets of primers described in Table 1, and the expression of each mRNA encoding cytokine was normalized with gapdh expression level.

Lactobacillus reuteri
expression of these genes (Tgfb, Il10, Foxp3, Rorc): did not modify
